According to patent US7713994B2 (Wyeth LLC, priority 2005, dated 2010):
pIC50: −log10 of the molar value. Where two headings read alike, the source gives them in different places.

How the values were obtained:
cyclin D1/cdk 4 enzyme = target: T1, cyclin D1/cdk 4 enzyme (Homo sapiens, UniProt P11802); test: CDK4 ELISA kinase assay (phospho-Rb ser 795 detection); format: biochemical
T1 construct: made in house; host or cells: Sf9 insect cells, recombinant baculovirus
In short: (§1)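 Inhibition was derived from A450 relative to control wells lacking compound, following an anti-phospho-Rb Ser795 sandwich of HRP detection. The reactions combined coated GST-Rb fragment, 200 μM ATP and baculovirus-expressed cyclin/CDK enzymes, incubated for 1 h at 30° C.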

cyclin E/CDK2 enzyme = target: T2, cyclin E/CDK2 enzyme (Homo sapiens, UniProt P24941); test: CDK2 ELISA kinase assay (phospho-Rb ser 795 detection); format: biochemical
T2 construct: made in house; host or cells: Sf9 insect cells, recombinant baculovirus
In short: as §1

cyclin B/CDK1 enzyme = target: T3, cyclin B/CDK1 enzyme (Homo sapiens, UniProt P06493); test: CDK1 ELISA kinase assay (phospho-Rb ser 795 detection); format: biochemical
T3 construct: purchased New England BioLabs; host or cells: Sf9 insect cells, recombinant baculovirus
In short: as §1

BT474 = test: Cytotoxicity assay (SRB), BT474; format: cell-based
In short: (§2)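 Overnight-seeded monolayers (4000–12000 cells/well by line) receive compound in 5% FBS medium at 37 °C, 7% CO2. After 3 d, or 6 d for BT474, cellular protein is fixed with cold TCA, stained with SRB and read at 540 nm against untreated wells.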

HCT-116 = test: Cytotoxicity assay (SRB), HCT-116; format: cell-based; settings: HCT116 cells, SRB, read-out: In Vitro Cellular Activity IC50 HCT116
In short: as §2

LoVo = test: Cytotoxicity assay (SRB), LoVo; format: cell-based; settings: LoVo cells, SRB, read-out: In Vitro Cellular Activity IC50 LOVO
In short: as §2

MCF-7 = test: Cytotoxicity assay (SRB), MCF-7; format: cell-based; settings: MCF-7 cells, SRB, read-out: In Vitro Cellular Activity IC50 MCF-7
In short: as §2

[1] = In Vitro Enzyme Assay, cyclin D1/cdk 4, read-out: CDK4 IC50
[2] = In Vitro Enzyme Assay, cyclin E/CDK2, read-out: CDK2 IC50
[3] = In Vitro Enzyme Assay, cyclin B/CDK1, read-out: CDK1 IC50
[4] = Homo sapiens, BT-474, 144 h, BT474 cells, 6 days, SRB; read-out: In Vitro Cellular Activity IC50 BT474
[5] = Homo sapiens, HCT-116, 72 h, 3 days
[6] = Homo sapiens, LoVo, 72 h, 3 days
[7] = Homo sapiens, MCF7, 72 h, 3 days
[8] = In Vitro Enzyme Assays, 200 μM ATP, read-out: CDK4 IC50
[9] = In Vitro Enzyme Assays, read-out: CDK2 IC50
[10] = In Vitro Enzyme Assays, read-out: CDK1 IC50
[11] = Homo sapiens, BT-474, 144 h, BT474 cells, SRB, 6 days; read-out: In Vitro Cellular Activity IC50 BT474
[12] = Homo sapiens, HCT-116, 72 h, three days
[13] = Homo sapiens, LoVo, 72 h, three days
[14] = Homo sapiens, MCF7, 72 h, three days

T3 sequence (P06493 whole entry): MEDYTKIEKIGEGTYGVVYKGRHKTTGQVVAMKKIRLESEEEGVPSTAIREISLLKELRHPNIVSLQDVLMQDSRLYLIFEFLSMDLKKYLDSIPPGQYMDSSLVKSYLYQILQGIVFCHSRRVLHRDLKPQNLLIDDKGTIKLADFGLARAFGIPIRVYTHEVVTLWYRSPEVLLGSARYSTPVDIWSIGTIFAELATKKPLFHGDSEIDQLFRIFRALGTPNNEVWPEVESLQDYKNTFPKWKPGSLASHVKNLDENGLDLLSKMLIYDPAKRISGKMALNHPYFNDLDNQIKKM
T3 sequence (P14635 whole entry partner): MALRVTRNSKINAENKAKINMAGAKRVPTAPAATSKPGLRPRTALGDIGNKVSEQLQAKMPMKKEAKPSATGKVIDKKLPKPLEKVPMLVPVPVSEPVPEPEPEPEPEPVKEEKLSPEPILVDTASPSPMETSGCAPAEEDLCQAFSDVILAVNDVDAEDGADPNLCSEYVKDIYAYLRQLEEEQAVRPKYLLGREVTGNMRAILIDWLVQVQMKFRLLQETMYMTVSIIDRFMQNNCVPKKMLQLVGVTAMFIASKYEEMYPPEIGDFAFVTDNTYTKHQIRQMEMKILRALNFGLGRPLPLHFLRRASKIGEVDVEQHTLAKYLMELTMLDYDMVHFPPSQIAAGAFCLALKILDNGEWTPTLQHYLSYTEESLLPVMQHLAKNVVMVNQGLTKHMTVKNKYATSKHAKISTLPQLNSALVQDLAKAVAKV
T1 sequence (P11802 whole entry, species assumed): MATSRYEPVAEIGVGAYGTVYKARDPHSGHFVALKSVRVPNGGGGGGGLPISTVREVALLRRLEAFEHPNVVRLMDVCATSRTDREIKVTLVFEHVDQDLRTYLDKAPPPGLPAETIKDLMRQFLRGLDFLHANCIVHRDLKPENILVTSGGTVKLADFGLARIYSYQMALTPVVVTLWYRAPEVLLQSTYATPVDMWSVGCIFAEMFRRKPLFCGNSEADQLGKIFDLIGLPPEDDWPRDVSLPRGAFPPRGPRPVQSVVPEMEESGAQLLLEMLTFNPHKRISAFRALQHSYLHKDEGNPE
T1 sequence (P24385 whole entry partner, species assumed): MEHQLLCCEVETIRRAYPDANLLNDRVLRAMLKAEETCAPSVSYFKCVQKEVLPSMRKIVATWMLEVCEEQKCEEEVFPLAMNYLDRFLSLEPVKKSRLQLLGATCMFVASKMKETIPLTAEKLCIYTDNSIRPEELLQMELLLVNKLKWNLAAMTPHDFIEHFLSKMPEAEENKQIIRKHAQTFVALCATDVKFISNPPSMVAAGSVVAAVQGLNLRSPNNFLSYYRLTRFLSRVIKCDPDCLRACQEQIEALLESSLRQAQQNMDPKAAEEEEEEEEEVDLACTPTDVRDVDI

pIC50 (cyclin D1/cdk 4 enzyme; [1])	pIC50 (cyclin E/CDK2 enzyme; [2])	pIC50 (cyclin B/CDK1 enzyme; [3])	pIC50 (cyclin D1/cdk 4 enzyme; [8])	pIC50 (cyclin E/CDK2 enzyme; [9])	pIC50 (cyclin B/CDK1 enzyme; [10])	Structure (SMILES)	pIC50 (BT474; [4])	pIC50 (HCT-116; [5])	pIC50 (LoVo; [6])	pIC50 (MCF-7; [7])	pIC50 (BT474; [11])	pIC50 (HCT-116; [12])	pIC50 (LoVo; [13])	pIC50 (MCF-7; [14])	pIC50 (BT474; BT474 cells, SRB, 6 days; read-out: In Vitro Cellular Activity IC50 BT474)	pIC50 (HCT-116; three days)	pIC50 (LoVo; three days)	pIC50 (MCF-7; three days)
< 4.30	4.39	< 4.30	–	–	–	COc1ccc(NC=C2C(=O)NCc3cc(-c4ccc[nH]4)ccc32)cc1 [Example 849, 4-[(4-Methoxy-phenylamino)-methylene]-7-(1H-pyrrol-2-yl)-1,4-dihydro-2H-isoquinolin-3-one]	5.17	4.89	4.80	5.37	–	–	–	–	–	–	–	–
–	–	–	4.56	< 4.30	< 4.30	COc1cccc(-c2ccc3c(c2)/C(=C/Nc2ccc(CN4CCCCC4)cc2)C(=O)NC3=O)c1 [Example 117, (4Z)-6-(3-Methoxyphenyl)-4-({[4-(piperidin-1-ylmethyl)phenyl]amino}methylene)-isoquinoline-1,3(2H,4H)-dione]	–	–	–	–	5.52	5.85	5.62	5.57	–	–	–	–
–	–	–	7.70	6.23	5.51	CCC(=O)Nc1ccc(CN/C=C2\C(=O)NC(=O)c3ccc(I)cc32)cc1O [Example 341, N-[2-Hydroxy-4-({[(Z)-(6-iodo-1,3-dioxo-2,3-dihydroisoquinolin-4(1H)-ylidene)methyl]amino}methyl)phenyl]propanamide]	–	–	–	–	6.03	6.00	6.02	5.60	–	–	–	–
6.57	4.94	4.68	–	–	–	COc1cccc(-c2ccc3c(c2)C(=CNCc2ccc(O)c(O)c2)C(=O)NC3=O)c1 [Example 765, 4-[(3,4-Dihydroxy-benzylamino)-methylene]-6-(3-methoxy-phenyl)-4H-isoquinoline-1,3-dione]	4.48	4.80	4.74	4.84	–	–	–	–	–	–	–	–
–	–	–	7.70	< 4.30	< 4.30	CN1CCN(c2ccc(N/C=C3\C(=O)NC(=O)c4ccc(-c5ccsc5)cc43)cn2)CC1 [Example 396, (4Z)-4-({[6-(4-Methylpiperazin-1-yl)pyridin-3-yl]amino}methylene)-6-thien-3-ylisoquinoline-1,3(2H,4H)-dione]	5.55	5.85	5.51	5.42	–	–	–	–	–	–	–	–
–	–	–	6.89	5.11	5.09	CN1CCN(c2ccc(N/C=C3\C(=O)NC(=O)c4ccc(-c5ccc(C=O)cc5)cc43)cc2)CC1 [Example 115, 4-[(4Z)-4-({[4-(4-Methylpiperazin-1-yl)phenyl]amino}methylene)-1,3-dioxo-1,2,3,4-tetra-hydroisoquinolin-6-yl]benzaldehyde]	–	–	–	–	5.17	5.80	5.19	5.33	–	–	–	–
–	–	–	< 4.30	4.50	< 4.30	CCCOc1ccc(CN/C=C2\C(=O)NC(=O)c3ccc(Br)cc32)cc1C(N)=O [Example 353, 5-({[(Z)-(6-Bromo-1,3-dioxo-2,3-dihydroisoquinolin-4(1H)-ylidene)methyl]amino}methyl)-2-propoxybenzamide]	–	–	–	–	6.17	5.21	6.00	< 4.30	–	–	–	–
8.00	4.59	4.46	–	–	–	COc1ccc(CNC=C2C(=O)NC(=O)c3ccc(-c4ccccc4)cc32)cc1O [Example 832, 4-[(3-Hydroxy-4-methoxy-benzylamino)-methylene]-6-phenyl-4H-isoquinoline-1,3-dione]	4.83	5.00	5.07	4.93	–	–	–	–	–	–	–	–
–	–	–	5.48	< 4.30	< 4.30	CN1CCN(c2ccc(N/C=C3\C(=O)NC(=O)c4ccc(-c5cccc(F)c5)cc43)cc2)CC1 [Example 154, 6-(3-Fluoro-phenyl)-4-{[4-(4-methyl-piperazin-1-yl)-phenylamino]-methylene}-4H-isoquinoline-1,3-dione]	–	–	–	–	5.52	5.66	5.49	5.57	–	–	–	–
–	–	–	5.51	4.66	4.92	CN1CCN(c2ccc(N/C=C3\C(=O)NC(=O)c4ccc(NC(=O)Cc5cccs5)cc43)cc2)CC1 [Example 198, 1,2,3,4-Tetrahydroisoquinolin-6-yl]-2-thien-2-ylacetamide ′N-[(4Z)-4-({[4-(4-methylpiperazin-1-yl)phenyl]amino}methylene)-1,3-dioxo]	–	–	–	–	–	–	–	–	5.37	5.74	5.43	5.37
–	–	–	6.33	< 4.30	< 4.30	CCN1CCN(c2ccc(N/C=C3\C(=O)NC(=O)c4ccc(I)cc43)cc2)CC1 [Example 393, (4Z)-4-({[4-(4-Ethylpiperazin-1-yl)phenyl]amino}methylene)-6-iodoisoquinoline-1,3(2H,4H)-dione]	5.23	5.55	5.17	5.57	–	–	–	–	–	–	–	–
6.26	5.02	4.69	–	–	–	O=C1NC(=O)c2ccc(-c3cccc(F)c3)cc2C1=CNCc1ccc(O)c(O)c1 [Example 768, 4-[(3,4-Dihydroxy-benzylamino)-methylene]-6-(3-fluoro-phenyl)-4H-isoquinoline-1,3-dione]	4.54	4.56	4.59	4.55	–	–	–	–	–	–	–	–
7.70	4.46	< 4.30	–	–	–	O=C1NC(=O)c2ccc(-c3ccco3)cc2/C1=C/NCc1cc(O)ccc1I [Example 503, 6-Furan-2-yl-4-[(5-hydroxy-2-iodo-benzylamino)-methylene]-4H-isoquinoline-1,3-dione]	5.80	5.28	5.29	6.00	–	–	–	–	–	–	–	–
4.84	5.44	< 4.30	–	–	–	N=C(N)c1ccc(NC=C2C(=O)NCc3cc(Br)ccc32)cc1 [Example 861, 4-[(7-Bromo-3-oxo-2,3-dihydro-1H-isoquinolin-4-ylidenemethyl)-amino]-benzamidine]	4.34	< 4.30	< 4.30	< 4.30	–	–	–	–	–	–	–	–
–	–	–	7.15	5.72	< 4.30	CCCOc1cnc(CNC=C2C(=O)NC(=O)c3ccc(Br)cc32)cc1O [Example 365, 4-{[(4-Hydroxy-5-propoxy-pyridin-2-ylmethyl)-amino]-methylene}-6-bromo-4H-isoquinoline-1,3-dione]	–	–	–	–	6.12	5.89	6.00	5.92	–	–	–	–
–	–	–	6.49	< 4.30	< 4.30	CN1CCN(c2ccc(N/C=C3\C(=O)NC(=O)c4ccc(I)cc43)c(F)n2)CC1 [Example 445, (4Z)-4-({[2-Fluoro-6-(4-methylpiperazin-1-yl)pyridin-3-yl]amino}methylene)-6-iodoisoquinoline-1,3(2H,4H)-dione]	5.55	5.74	5.57	5.49	–	–	–	–	–	–	–	–
–	–	–	5.54	< 4.30	< 4.30	CN(C)C/C=C/C(=O)N1CCCC1c1ccc(N/C=C2\C(=O)NC(=O)c3ccc(I)cc32)cc1 (stereo not drawn) [Example 402, 4-({4-[1-(4-Dimethylamino-but-2-enoyl)-pyrrolidin-2-yl]-phenylamino}-methylene)-6-iodo-4H-isoquinoline-1,3-dione]	5.15	5.40	5.22	5.12	–	–	–	–	–	–	–	–
7.70	4.62	< 4.30	–	–	–	COc1ccc(CNC=C2C(=O)NC(=O)c3ccc(-c4ccco4)cc32)cc1O [Example 837, 6-Furan-2-yl-4-[(3-hydroxy-4-methoxy-benzylamino)-methylene]-4H-isoquinoline-1,3-dione]	5.82	4.97	5.07	5.44	–	–	–	–	–	–	–	–
